Test [1] has as its target T1, Cathepsin B (Homo sapiens, UniProt P07858). Description: Inhibition of Cathepsin B (unknown origin) at 10 uM relative to control.
The nature of test [2]: Inhibition of Cathepsin B-like cysteine protease (unknown origin). Further details: species or system Homo sapiens.
Test [3] has as its target T1, Cathepsin B. Description: Inhibition of Cathepsin B (unknown origin).

Where a SMILES comes first, the peptide text is derived from it. The star is where a group is joined. Cbz = O=C(OCc1ccccc1)*; CH2F = FC*

In general, inhibition refers to the change of the read-out against control, counted positive when it falls. Lower therefore signals little suppression. In general, IC50 refers to the concentration that gives 50% inhibition.

Compound `CCOC(=O)[C@H]1O[C@@H]1C(=O)N[C@@H](CC(C)C)C(=O)NCCC(C)C` registered an inhibition on Cathepsin B [1] of 91%.

In test [2], `CC(C)C[C@H](NC(=O)[C@H]1O[C@@H]1C(=O)O)C(=O)NCCCCN=C(N)N` [E-64] displayed an IC50 of 0.009 µM. As for `COC(=O)CC[C@H](NC(=O)[C@H](Cc1c[nH]c2ccccc12)NC(=O)OCc1ccccc1)C(=O)N[C@@H](Cc1cnc[nH]1)C(=O)N[C@@H](CC(=O)OC)C(=O)CF` (Cbz-WE(OMe)HD(OMe)-CH2F), half-maximal inhibition against Cathepsin B [3] (IC50) was put at 6 µM.

The record behind these values is ChEMBL document CHEMBL6078613, “Cathepsin B: The dawn of tumor therapy” (Eur J Med Chem, 2024).
